Source: patent US12295997B2, “Prostate neoantigens and their uses” (Janssen Biotech, Inc., priority 2020, dated 2025)

System: CD8+ and CD4+ T cells (autologous CD3+ Pan-T cells isolated from human normal PBMCs)
Test: Endogenous autologous normal donor restimulation assay (Ad5-transduced CD1c+ dendritic cells, TNFα/IFNγ flow cytometry)
Type: cell-based
Details: Table 27, endogenous expression, peptide pool restimulation, highest across sixteen normal donors
Procedure: CD1c+ Dendritic Cells (DC) isolated from human normal PBMCs were thawed using media (IMDM (Gibco) supplemented with glutamine, HEPES, 5% human serum (Sigma), and 1×Pen-Strep). DC cells were resuspended in media supplemented with IL-4 (Peprotech, 80 ng/mL) and GM-CSF (Gibco, 80 ng/mL), plated in 6 well microplates, and rested overnight at 37° C. (5% CO2). The following day, DC cells were counted and plated in a 96 well round bottom microplate at a concentration of 30,000 viable cells per well. Ad5 vectors (Vector Biolabs) were dilute in media to an MOI (Multiplicity Of Infection) of 5000 based on Plaque Forming Units. Ad5 vectors for the CEF pool and a “null” were used as controls. DCs were transduced with Ad5 vectors overnight at 37° C. (5% CO2). The following day, the Ad5 vectors were washed off the plate by three sequential centrifugation/aspiration steps using sterile Phosphate Buffered Saline. After the final wash, transduced DCs were resuspended in 100 μL media. Autologous CD3+ Pan-T cells isolated from human normal PBMCs were thawed using media. Pan-T cells were added to the irradiated DCs at 300,000 viable cells per well (100 μL/well). Human IL-15 (Peprotech) was added to all wells at final concentration of 10 ng/mL.
Plates were incubated at 37° C. (5% CO2) for a total of 12 days. Media was refreshed every 2-3 days with IL-15 (10 ng/mL final concentration) and IL-2 (R&D systems, 10 IU/mL final concentration). On day 11 lyophilized peptides (15-mer overlapping peptides) were solubilized in 100% DMSO and pooled by neoantigen to between 5 mg/mL and 20 mg/mL. Neoantigen peptides pools were added to cells for a final concentration of 2.5 μg/mL to 10 μg/mL. CEF Peptide Pool “Plus” (Cellular Technologies, Ltd.) was utilized as a positive control and DMSO at the same final concentration as the experimental peptides was utilized as a negative control. Protein Inhibitor Cocktail (eBioscience) was added to every well and plate was incubated overnight at 37° C. (5% CO2).
On day 12, cells were stained for intracellular flow cytometry analysis. The cells were washed with PBS and stained with Live/Dead Fixable Aqua Dead Cell stain (Thermo-Fisher). Following the live/dead stain, cells were blocked using Biotin-Free Fc Receptor Blocker (Accurate Chemical & Scientific Corp). Extracellular cellular flow panel ([…] per well in 50 μL) consisted of CD3 PerCP-Cy5.5 (Biolegend), CD4 BV421 (Biolegend), and CD8 APC-Cy7 (Biolegend). After extracellular staining, cells were fixed using Foxp3/fTranscription Factor Staining Buffer Set (eBioscience) and stained for intracellular proteins (1:50 dilution) using TNFα FITC (R&D Systems) and IFNγ BV785 (Biolegend). Cells were washed and resuspended in stain buffer and analyzed using a BD Celesta flow cytometer.
Flow cytometry cell staining analysis was completed using FlowJo v10. Cells were gated on live, singlet, CD3+ cells. The CD8+ and CD4+ T cells were analyzed for TNFα/IFNγ expression and the frequency of double positive TNFα/IFNγ CD8+ and the frequency of double positive TNFα/IFNγ CD4+ T cells were recorded. Responses were assessed to be positive when the frequency of double positive TNFα/IFNγ CD8+ or TNFα/IFNγ CD4+ T cells due to stimulation with an experimental peptide pool was increased greater than or equal to 3-fold over the DMSO only negative control for that donor and at least 0.01%.
For three of the neoantigens, an Ad5 vector was designed to transduce normal Dendritic cells with the neoantigens. This assay assessed the ability of the endogenously expressed and presented neoantigens to activate autologous T cells following overlapping 15-mer peptide pools restimulation using the endogenous autologous normal donor restimulation assay described in Example 1 utilizing TNFα and IFNγ production by CD8^+ and CD4^+ T cells as a readout. […] Sixteen donors were used to assess endogenous immunogenicity.

Sequence: YEAGMTLGGKILFFLFLLLPLSPFSLIF (listed as Homo sapiens) [Neoantigen P87]
- Maximum Fold Change Over Background CD4+ cells: 2.41
- Maximum Fold Change Over Background CD8+ cells: 2.47
- Maximum Frequency of TNFα/IFNγ Double Positive CD4+ T cells: 0.079
- Maximum Frequency of TNFα/IFNγ Double Positive CD8+ T cells: 0.39
